For the experiment, the system named is Carbonic Anhydrase. The experiment in a line: Evaluation of Hydrochlorothiazide binding capacity by surface plasmon resonance on CA captured on an Anti-CA-immobilized chip. Conditions: two minutes after start of replacement. On the procedure:
The following experiment was carried out using a device shown in FIG. 22 of Japanese Patent Laid-Open No. 2001-330560 (hereinafter referred to as the surface plasmon resonance measurement device of the present invention) (shown in FIG. 1 of the present specification) and a dielectric block shown in FIG. 23 of Japanese Patent Laid-Open No. 2001-330560 (hereinafter referred to as the dielectric block of the present invention) (shown in FIG. 2 of the present specification).
After solutions were removed from the above dextran measuring chip, 70 μl of a mixture solution of 200 mM EDC (N-ethyl-N′-(3-dimethylaminopropyl)carbodiimide hydrochloride) and 50 mM NHS (N-hydroxysuccinimide) was added and the chip was then allowed to stand for 10 minutes. After the mixture solution was removed, the chip was washed three times with 100 μl of water and three times with 100 μl of Acetate 4.5 buffer (produced by Biacore). The chip filled with 100 μl of Acetate 4.5 buffer was set on the surface plasmon resonance measurement device of the present invention. The inside of the chip was replaced with anti-Carbonic Anhydrase antibody (hereafter referred to as Anti-CA, which was purchased from COSMO BIO Co., Ltd.(NOR)) solution (dissolved in Acetate 4.5 (produced by BIAcore) to […]), and the chip was allowed to stand for 30 minutes for immobilizing the Anti-CA. The inside of the chip was then replaced with 1M ethanolamine solution, and the chip was allowed to stand for 10 minutes. The inside of the chip was washed ten times with 100 μl of Acetate 4.5 buffer, thereby preparing an Anti-CA-immobilized chip. The amount of change in resonance signal due to Anti-CA immobilization was 15,000RU. After the measurement of the signal change, the inside of the Anti-CA-immobilized chip was washed three times with 100μl of 1×PBS (pH7.4) buffer (Wako Pure Chemical Industries, Ltd.).
The dielectric block of the Anti-CA-immobilized chip was then capped with a silicon rubber, thereby preparing a cell with an inner volume of 15 μl. Also, a fluid channel system was prepared by making two 1-mm φ holes in the silicon rubber cap and putting a teflon tube (registered trademark) with an internal diameter of 0.5 mm and an external diameter of 1 mm through the holes. Individual chips with such fluid channel system were set on the surface plasmon resonance measurement device of the present invention.
The inside of the fluid channel system was filled with 1×PBS (pH7.4) buffer. Signal changes were measured at 0.5 seconds intervals with reference to the signal prior to the replacement of the fluid. The inside of the fluid channel system was then replaced with Carbonic Anhydrase (produced by SIGMA, hereinafter referred to as CA) solution (dissolved in 1×PBS (pH7.4) to 100 μg/ml). When the binding signal reached 3,000RU, the inside was replaced with Hydrochlorothiazide (produced by SIGMA) solution (dissolved in 1×PBS (pH7.4) to 50 μM) by the individual methods indicated in Table 1. […] In order to obtain highly reliable data, it is preferable that the compound binding detection signal be 5RU or more.
In general terms: In SPR one partner is held on a chip, and binding of the other changes the refractive index at the surface.

As to `NS(=O)(=O)c1cc2c(cc1Cl)NCNS2(=O)=O` [Hydrochlorothiazide], the Signal change is 15 RU (Method No. 1 (Example): 50 μM in 1×PBS pH7.4, fluid 100 μl, flow 100 μl/sec, replacement 1 sec, stop 119 sec); 12 RU (Method No. 2 (Example): 50 μM in 1×PBS pH7.4, fluid 100 μl, flow 10 μl/sec, replacement 10 sec, stop 110 sec); 10 RU (Method No. 3 (Example): 50 μM in 1×PBS pH7.4, fluid 150 μl, flow 5 μl/sec, replacement 30 sec, stop 90 sec); 10 RU (Method No. 4 (Example): 50 μM in 1×PBS pH7.4, fluid 200 μl, flow 20 μl/sec, replacement 10 sec, stop 110 sec); −1 RU (Method No. 5 (Comparative example): 50 μM in 1×PBS pH7.4, fluid 300 μl, flow 2.5 μl/sec, replacement 120 sec, stop 0 sec); −4 RU (Method No. 6 (Comparative example): 50 μM in 1×PBS pH7.4, fluid 600 μl, flow 5 μl/sec, replacement 120 sec, stop 0 sec). The Signal change runs as follows: (Method No. 7 (Comparative example): 50 μM in 1×PBS pH7.4, fluid 1200 μl, flow 10 μl/sec, replacement 120 sec, stop 0 sec) −10 RU; (Method No. 8 (Comparative example): 50 μM in 1×PBS pH7.4, fluid 2400 μl, flow 20 μl/sec, replacement 120 sec, stop 0 sec) −20 RU.

The values are drawn from patent publication US20060209305A1, “Biosensor” (FUJI PHOTO FILM CO., LTD., priority 2005, published 2006).
